Measured values: ChEMBL document CHEMBL1136236, “Design and parallel synthesis of piperidine libraries targeting the nociceptin (N/OFQ) receptor” (Bioorg Med Chem Lett, 2003)
Active and inactive are the calls of the source. No cut-off for these calls is given here.

Experiments:
Nociceptin receptor [1] = molecular target: T1, Nociceptin receptor (Homo sapiens, UniProt P41146); test: Inhibitory activity against human orphanin FQ receptor expressed in recombinant HEK 293 cells; inactive; assay type: cell-based; conditions: HEK293
T1 sequence (P41146 whole entry): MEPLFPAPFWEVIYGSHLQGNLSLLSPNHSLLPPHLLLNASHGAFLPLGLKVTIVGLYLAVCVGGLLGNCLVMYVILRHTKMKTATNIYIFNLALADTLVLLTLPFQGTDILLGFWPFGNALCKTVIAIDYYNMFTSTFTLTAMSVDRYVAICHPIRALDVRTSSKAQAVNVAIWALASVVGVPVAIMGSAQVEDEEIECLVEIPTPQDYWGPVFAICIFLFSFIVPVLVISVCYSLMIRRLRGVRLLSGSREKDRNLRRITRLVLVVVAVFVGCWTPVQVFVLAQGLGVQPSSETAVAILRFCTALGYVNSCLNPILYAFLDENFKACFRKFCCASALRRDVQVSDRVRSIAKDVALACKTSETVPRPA

Nociceptin receptor [2] = molecular target: T1, Nociceptin receptor; test: Binding affinity against human orphanin FQ receptor expressed in recombinant HEK 293 cells; assay type: cell-based, HEK293
Nociceptin receptor [3] = molecular target: T1, Nociceptin receptor; test: Inhibitory activity against human orphanin FQ receptor expressed in recombinant HEK 293 cells; assay type: cell-based; parameters: concentration or dose not given beside the values; conditions: HEK293; concentration not given here
Nociceptin receptor [4] = molecular target: T1, Nociceptin receptor; test: Antagonistic activity against orphan FQ receptor; assay type: functional
[5] = molecular target: T2, Delta-type opioid receptor (Homo sapiens, UniProt P41143); test: Antagonistic activity against Opioid receptor delta 1; not active; assay type: functional
T2 sequence (P41143 whole entry): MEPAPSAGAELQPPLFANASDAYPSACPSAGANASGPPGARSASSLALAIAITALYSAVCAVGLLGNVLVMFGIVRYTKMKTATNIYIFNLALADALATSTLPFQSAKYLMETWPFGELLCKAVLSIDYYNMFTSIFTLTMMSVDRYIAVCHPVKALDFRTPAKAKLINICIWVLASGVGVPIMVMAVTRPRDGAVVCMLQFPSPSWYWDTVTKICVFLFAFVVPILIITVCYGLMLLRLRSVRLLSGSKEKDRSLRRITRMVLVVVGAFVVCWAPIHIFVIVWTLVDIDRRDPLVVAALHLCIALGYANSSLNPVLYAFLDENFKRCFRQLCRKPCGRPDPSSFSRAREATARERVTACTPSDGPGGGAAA

[6] = molecular target: T3, Kappa-type opioid receptor (Homo sapiens, UniProt P41145); test: Antagonistic activity against opioid receptor kappa 1; assay type: functional
T3 sequence (P41145 whole entry): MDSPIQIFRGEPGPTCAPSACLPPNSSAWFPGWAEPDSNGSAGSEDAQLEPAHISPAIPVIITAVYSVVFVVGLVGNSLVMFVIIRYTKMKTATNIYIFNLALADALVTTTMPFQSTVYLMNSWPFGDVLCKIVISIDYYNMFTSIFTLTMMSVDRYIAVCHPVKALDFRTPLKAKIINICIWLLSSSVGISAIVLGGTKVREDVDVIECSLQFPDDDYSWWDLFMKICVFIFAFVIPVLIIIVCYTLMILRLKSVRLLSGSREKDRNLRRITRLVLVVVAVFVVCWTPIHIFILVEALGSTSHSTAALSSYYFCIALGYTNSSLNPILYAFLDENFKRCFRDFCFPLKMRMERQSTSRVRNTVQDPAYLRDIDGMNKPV

Mu-type opioid receptor [7] = molecular target: T4, Mu-type opioid receptor (Homo sapiens, UniProt P35372); test: Antagonistic activity against opioid receptor mu1; assay type: functional
T4 sequence (P35372 whole entry): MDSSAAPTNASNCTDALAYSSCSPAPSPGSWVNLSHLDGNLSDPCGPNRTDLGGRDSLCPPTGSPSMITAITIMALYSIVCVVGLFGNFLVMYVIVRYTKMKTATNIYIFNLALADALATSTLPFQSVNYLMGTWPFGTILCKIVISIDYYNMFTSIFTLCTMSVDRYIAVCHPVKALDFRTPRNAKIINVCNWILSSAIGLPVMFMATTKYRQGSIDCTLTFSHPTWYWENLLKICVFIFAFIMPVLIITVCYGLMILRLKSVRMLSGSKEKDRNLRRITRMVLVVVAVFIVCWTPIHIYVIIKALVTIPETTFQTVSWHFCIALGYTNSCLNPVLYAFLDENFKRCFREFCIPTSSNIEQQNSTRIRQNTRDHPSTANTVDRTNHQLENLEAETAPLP

Mu-type opioid receptor [8] = molecular target: T4, Mu-type opioid receptor; test: Selectivity ratio of Opioid receptor mu 1 binding to Orphanin FQ receptor
[9] = molecular target: T3, Kappa-type opioid receptor; test: Antagonistic activity against opioid receptor kappa 1; not active; assay type: functional
[10] = molecular target: T2, Delta-type opioid receptor; test: Antagonistic activity against Opioid receptor delta 1; assay type: functional
Nociceptin receptor [11] = molecular target: T1, Nociceptin receptor; test: Inhibitory activity against human orphanin FQ receptor expressed in recombinant HEK 293 cells; in active; assay type: cell-based; conditions: HEK293

| SMILES | Ki (Nociceptin receptor [2]) | inhibition (Nociceptin receptor [3]) | Ki (Nociceptin receptor [4]) | Ki (Mu-type opioid receptor [7]) | Selectivity ratio (Mu-type opioid receptor [8]) | other results |
| --- | --- | --- | --- | --- | --- | --- |
| O=[N+]([O-])c1ccc(CN2CCC(O)(c3ccc(Cl)c(C(F)(F)F)c3)CC2)o1 | > 10000 nM | – | – | – | – | inhibition (Nociceptin receptor [1]): inactive |
| OC1(c2ccc(Cl)cc2)CCN(Cc2ccc(C(F)(F)F)cc2)CC1 | 307 nM | 85% | – | – | – | – |
| OC1(c2cccc(C(F)(F)F)c2)CCN(Cc2ccc(F)cc2)CC1 | 692 nM | 80% | – | – | – | – |
| CCCC1CCC(N2CCC(O)(c3cccc(C(F)(F)F)c3)CC2)CC1 (configuration not stated) | – | – | 135 nM | 46 nM | 0.34 | Ki [5]: Not Active; Ki [6]: 6000 nM |
| N#CC1(c2ccccc2)CCN(Cc2ccc(Cl)c(Cl)c2)CC1 | 1270 nM | 65% | – | – | – | – |
| OC1(c2ccc(Cl)c(C(F)(F)F)c2)CCN(CCC(c2ccccc2)c2ccccc2)CC1 | – | – | 225 nM | 4 nM | 0.02 | Ki [5]: Not Active; Ki [9]: Not Active |
| N#CC1(c2ccccc2)CCN(Cc2cccc3ccccc23)CC1 | 827 nM | 55% | – | – | – | – |
| O=C(COCc1ccccc1)N1CCC(O)(c2ccc(Br)cc2)CC1 | > 10000 nM | 50% | – | – | – | – |
| N#CC1(c2ccccc2)CCN(Cc2ccc(F)cc2)CC1 | > 10000 nM | 55% | – | – | – | – |
| OC1(c2ccc(Cl)c(C(F)(F)F)c2)CCN(Cc2ccc3ccccc3c2)CC1 | 879 nM | 70% | – | – | – | – |
| OC1(c2cccc(C(F)(F)F)c2)CCN(CC2CCCCCCC2)CC1 | – | – | 102 nM | 113 nM | 1.11 | Ki [5]: Not Active; Ki [6]: 4240 nM |
| CC(C)C1CCC(N2CCC(O)(c3ccc(Cl)c(C(F)(F)F)c3)CC2)CC1 (configuration not stated) | – | – | 33 nM | 8 nM | 0.24 | Ki [10]: 10000 nM; Ki [9]: Not Active |
| OC1(c2cccc(C(F)(F)F)c2)CCN(Cc2ccc(C(F)(F)F)cc2)CC1 | 6520 nM | – | – | – | – | – |
| OC1(c2ccc(Cl)c(C(F)(F)F)c2)CCN(C2Cc3ccccc3C2)CC1 | – | – | 82 nM | 19 nM | 0.23 | Ki [10]: 10000 nM; Ki [9]: Not Active |
| OC1(c2ccc(Cl)c(C(F)(F)F)c2)CCN(Cc2ccc(C(F)(F)F)cc2)CC1 | 1190 nM | 55% | – | – | – | – |
| N#Cc1ccc(CN2CCC(O)(c3ccc(Cl)c(C(F)(F)F)c3)CC2)cc1 | > 10000 nM | – | – | – | – | inhibition (Nociceptin receptor [11]): inactive |
| CC(C)C1CCC(N2CCC(O)(c3cccc(C(F)(F)F)c3)CC2)CC1 (configuration not stated) | – | – | – | – | – | Ki [6]: 4150 nM |
| Cc1ccc2ccccc2c1CN1CCC(C#N)(c2ccccc2)CC1 | > 10000 nM | – | – | – | – | inhibition (Nociceptin receptor [1]): inactive |
| OC1(c2cccc(C(F)(F)F)c2)CCN(Cc2ccc3ccccc3c2)CC1 | 715 nM | 85% | – | – | – | – |
| N#CC1(c2ccccc2)CCN(Cc2ccc3ccccc3c2)CC1 | 1110 nM | 70% | – | – | – | – |
| OC1(c2cccc(C(F)(F)F)c2)CCN(C2CCC3CCCCC3C2)CC1 (configuration not stated) | – | – | 12 nM | 21 nM | 1.75 | Ki [10]: 10000 nM; Ki [9]: Not Active |
| OC1(c2ccc(Cl)c(C(F)(F)F)c2)CCN(Cc2ccc(F)cc2)CC1 | 234 nM | 90% | – | – | – | – |
| OC1(c2cccc(C(F)(F)F)c2)CCN(CCC(c2ccccc2)c2ccccc2)CC1 | – | – | 116 nM | 1 nM | 0.01 | Ki [10]: 9390 nM; Ki [9]: Not Active |
| OC1(c2ccc(Cl)cc2)CCN(Cc2ccc3ccccc3c2)CC1 | 153 nM | 90% | – | – | – | – |
| OC1(c2ccc(Cl)c(C(F)(F)F)c2)CCN(CC2CCCCCCC2)CC1 | – | – | 47 nM | 124 nM | 2.64 | Ki [10]: 8780 nM; Ki [6]: 1650 nM |
| OC1(c2ccc(Cl)cc2)CCN(CC2CCCCCCC2)CC1 | – | – | 502 nM | 626 nM | 1.25 | Ki [5]: Not Active; Ki [9]: Not Active |
